In patent US12691086B2, “Methods of treating systemic sclerosis and idiopathic pulmonary fibrosis” (HORIZON THERAPEUTICS IRELAND DAC, priority 2022, dated 2026):
Values after ≈ are worked out from the molar mass of the structure shown.

How the values were obtained:
[1] = test system: idiopathic pulmonary fibrosis; conditions: Palmer et al. Chest 2018; cited from earlier work
[2] = Solubility of the different polymorphs in phosphate buffer; format: physicochemical; conditions: for solubility, concentration versus time: pH 7.4 phosphate buffer, 25° C.; for equilibrium solubility relative to Form 1: 24 hours
Experimental: The solubility of the different polymorphs was determined at pH 7.4 in phosphate buffer at 25° C. Samples were analyzed as a function of time for each form to determine the equilibrium values. The residual solids from each sample were analyzed to verify that the form was unchanged during the experiment. The concentration (mg/mL) versus time data is listed below for each form: […]

[3] = Dynamic Vapor Sorption (DVS); format: physicochemical
Experimental: Moisture sorption/desorption isotherms are recorded on a DVS-1 from SURFACE MEASUREMENT SYSTEMS. Two cycles are run at 25° C., in which the Relative Humidity (RH) is stepped from 0 to 95% and back to 0%. The data is evaluated with the software DVSWin V. 2.15.

[4] = Physical stability of solid state forms, examined by FTIR; format: physicochemical; conditions: 80° C./75% RH, 1 week (7 days), open glass vials
Experimental: The physical stability of Forms 1, 2, and 3 was investigated at 80° C./75% RH in order to determine if interconversion was observed. The samples were examined by FTIR after stressing 1 week in open glass vials.

Compound	rate of decline in forced vital capacity (FVC) compared with placebo [1]	solubility, concentration versus time ([2]; 1 hr) [mg/mL]	solubility, concentration versus time ([2]; 2 hr) [mg/mL]	solubility, concentration versus time ([2]; 3 hr) [mg/mL]	Reversible water uptake ([3]; 25° C.)	Reversible water uptake ([3]; between 0 and 95% RH)	changes in FTIR spectrum (physical stability, interconversion) [4]	24 hour solubility result, greater than Form 1 ([2]; 24 hour)	equilibrium solubility relative to Form 1 [2]
Cc1noc(-c2ccc(-c3ccc(C4(C(=O)O)CC4)cc3)cc2)c1NC(=O)O[C@H](C)c1ccccc1 [BMS-986020]	significantly slowed	–	–	–	–	–	–	–	–
COc1ccc(C(=O)NC2(C(=O)O)Cc3ccccc3C2)cc1OCCc1cccc(C)c1 [Form 1, 2-(4-methoxy-3-(3-methylphenethoxy)benzamido)-2,3-dihydro-1H-indene-2-carboxylic acid]	–	0.042 (≈ 94.3 µM)	0.041 (≈ 92 µM)	0.042 (≈ 94.3 µM)	less than 1%	~ −0.1 % w/w	unchanged FTIR	–	–
COc1ccc(C(=O)NC2(C(=O)O)Cc3ccccc3C2)cc1OCCc1cccc(C)c1 [Form 2, 2-(4-methoxy-3-(3-methylphenethoxy)benzamido)-2,3-dihydro-1H-indene-2-carboxylic acid]	–	0.034 (≈ 76.3 µM)	0.039 (≈ 87.5 µM)	0.043 (≈ 96.5 µM)	–	–	unchanged FTIR	more than 30%	–
COc1ccc(C(=O)NC2(C(=O)O)Cc3ccccc3C2)cc1OCCc1cccc(C)c1 [Form 3, 2-(4-methoxy-3-(3-methylphenethoxy)benzamido)-2,3-dihydro-1H-indene-2-carboxylic acid]	–	0.083 (≈ 186 µM)	0.093 (≈ 209 µM)	0.095 (≈ 213 µM)	–	–	unchanged FTIR	–	more than double
COc1ccc(C(=O)NC2(C(=O)O)Cc3ccccc3C2)cc1OCCc1cccc(C)c1 [Form 4, 2-(4-methoxy-3-(3-methylphenethoxy)benzamido)-2,3-dihydro-1H-indene-2-carboxylic acid]	–	0.079 (≈ 177 µM)	0.089 (≈ 200 µM)	0.105 (≈ 236 µM)	–	–	–	–	more than double
